Like-named read-outs stand apart in the source and are kept apart here.

Consider 31 molecules from patent publication US8541418B2, “Inhibitors of polo-like kinase” (Elan Pharmaceutical, Inc., priority 2009, dated 2013).

Type in all cases: biochemical
One test has as its target PLK1 (Homo sapiens, UniProt P53350). Nature of the test: PLK TR-FRET peptide assay, PLK1. Particulars: GST-PLK1, 60 min reaction.
A further test has as its target PLK2 (Homo sapiens, UniProt Q9NYY3). As to the kind of experiment: PLK TR-FRET peptide assay, PLK2. The following applies: for IC50: PLK TR-FRET peptide assay, GST-PLK2, 60 min reaction, read-out: Plk2 IC50; for relative PLK2 activity of the enantiomers: compared with the opposite enantiomer.
The target in the next test is PLK3 (Homo sapiens, UniProt Q9H4B4). As to the kind of experiment: PLK TR-FRET peptide assay, PLK3. For orientation: In TR-FRET formats the signal depends on donor and acceptor labels being close together.
[1] abbreviates: GST-PLK3, 15 min reaction, read-out: Plk3 IC50.
Setting [2] is: read-out: Plk3 IC50, GST-PLK3, 15 min reaction.

PLK1, sequence (P53350 whole entry): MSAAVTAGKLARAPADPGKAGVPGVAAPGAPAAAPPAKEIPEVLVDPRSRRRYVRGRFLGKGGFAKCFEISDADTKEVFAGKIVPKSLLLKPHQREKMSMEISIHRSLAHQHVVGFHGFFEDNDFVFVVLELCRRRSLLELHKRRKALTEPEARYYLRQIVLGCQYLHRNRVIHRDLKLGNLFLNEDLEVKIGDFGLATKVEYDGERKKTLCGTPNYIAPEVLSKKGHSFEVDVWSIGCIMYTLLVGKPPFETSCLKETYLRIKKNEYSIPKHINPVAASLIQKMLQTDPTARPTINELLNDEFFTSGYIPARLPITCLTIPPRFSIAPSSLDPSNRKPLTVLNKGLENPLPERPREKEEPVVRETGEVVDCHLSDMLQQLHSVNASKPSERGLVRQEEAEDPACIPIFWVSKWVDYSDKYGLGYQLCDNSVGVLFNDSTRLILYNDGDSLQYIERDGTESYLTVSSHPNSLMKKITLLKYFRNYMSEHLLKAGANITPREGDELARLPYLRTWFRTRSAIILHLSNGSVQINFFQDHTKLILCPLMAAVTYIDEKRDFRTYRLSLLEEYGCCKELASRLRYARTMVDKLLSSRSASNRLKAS
PLK2, sequence (Q9NYY3 whole entry): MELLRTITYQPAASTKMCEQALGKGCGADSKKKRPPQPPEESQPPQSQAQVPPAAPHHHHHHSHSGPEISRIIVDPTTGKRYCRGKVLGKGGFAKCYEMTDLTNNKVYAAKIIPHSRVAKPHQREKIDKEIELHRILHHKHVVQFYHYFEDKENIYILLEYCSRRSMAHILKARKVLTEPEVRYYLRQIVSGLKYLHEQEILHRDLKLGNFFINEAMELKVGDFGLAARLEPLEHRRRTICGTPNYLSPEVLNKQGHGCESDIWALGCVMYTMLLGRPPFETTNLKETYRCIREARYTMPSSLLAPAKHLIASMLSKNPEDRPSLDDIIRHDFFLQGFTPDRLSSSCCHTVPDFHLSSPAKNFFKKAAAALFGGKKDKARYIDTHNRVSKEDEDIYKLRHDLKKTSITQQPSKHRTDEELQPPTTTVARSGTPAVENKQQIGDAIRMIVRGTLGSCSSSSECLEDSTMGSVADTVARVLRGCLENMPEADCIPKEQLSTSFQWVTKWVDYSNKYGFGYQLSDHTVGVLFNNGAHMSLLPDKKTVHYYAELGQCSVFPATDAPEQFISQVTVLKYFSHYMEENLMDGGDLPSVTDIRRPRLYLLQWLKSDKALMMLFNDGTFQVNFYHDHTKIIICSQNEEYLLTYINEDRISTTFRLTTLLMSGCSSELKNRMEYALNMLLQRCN
PLK3, sequence (Q9H4B4 whole entry): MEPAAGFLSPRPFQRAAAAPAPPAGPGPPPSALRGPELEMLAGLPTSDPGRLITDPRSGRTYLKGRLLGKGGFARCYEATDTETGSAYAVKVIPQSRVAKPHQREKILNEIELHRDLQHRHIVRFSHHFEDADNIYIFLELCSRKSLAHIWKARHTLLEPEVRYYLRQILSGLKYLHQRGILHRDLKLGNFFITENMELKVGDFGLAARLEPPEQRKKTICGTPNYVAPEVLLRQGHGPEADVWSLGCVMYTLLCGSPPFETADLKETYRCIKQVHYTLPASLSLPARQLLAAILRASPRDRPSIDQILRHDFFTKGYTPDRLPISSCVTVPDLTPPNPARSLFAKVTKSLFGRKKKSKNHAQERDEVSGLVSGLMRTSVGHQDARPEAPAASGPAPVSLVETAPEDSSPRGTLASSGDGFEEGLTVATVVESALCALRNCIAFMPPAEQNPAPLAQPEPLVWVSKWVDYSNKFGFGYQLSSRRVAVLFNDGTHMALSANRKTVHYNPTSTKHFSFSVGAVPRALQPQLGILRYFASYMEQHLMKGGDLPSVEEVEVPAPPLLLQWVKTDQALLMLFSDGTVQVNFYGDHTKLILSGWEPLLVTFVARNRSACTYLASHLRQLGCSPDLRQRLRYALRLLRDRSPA

The term IC50 denotes the point on the concentration scale where inhibition reaches its midpoint. For `CN1C(=O)[C@H]2CCCCN2c2nc(-n3ccnc3)ncc21` [Example 24, (R)-2-(1H-imidazol-1-yl)-5-methyl-7,8,9,10-tetrahydro-5H-pyrido[2,1-h]pteridin-6(6aH)-one], the IC50 at PLK1 and at PLK2 was > 50 µM each time.
`CC[C@@H]1C(=O)N(C)c2cnc(-n3cc[n+](C)c3C)nc2N1C1CCCC1` [Example 28, (R)-1-(8-cyclopentyl-7-ethyl-5-methyl-6-oxo-5,6,7,8-tetrahydropteridin-2-yl)-2,3-dimethyl-1H-imidazol-3-ium]: the IC50 against PLK1 and at PLK2 was > 50 µM each time.
Regarding `CN1C(=O)[C@H]2CCCCN2c2nc(-c3ccncc3)ncc21` [Example 25, (R)-5-methyl-2-(pyridin-4-yl)-7,8,9,10-tetrahydro-5H-pyrido[2,1-h]pteridin-6(6aH)-one], the IC50 was > 50 µM on PLK1 and 10 to 50 µM on PLK2.
The like results for `CC[C@@H]1C(=O)N(C)c2cnc(-c3cc4ccccc4[nH]3)nc2N1C1CCCC1` [Example 9, (R)-8-cyclopentyl-7-ethyl-2-(1H-indol-2-yl)-5-methyl-7,8-dihydropteridin-6(5H)-one] were, in that order, < 1 µM and 1 to 10 µM.
Consider `CC[C@@]12COCCN1c1nc(-n3ccnc3-c3nccs3)ncc1N(C)C2=O` [Example 387, (S)-6a-ethyl-5-methyl-2-(2-(thiazol-2-yl)-1H-imidazol-1-yl)-6a,7,9,10-tetrahydro-[1,4]oxazino[3,4-h]pteridin-6(5H)-one], for which the “relative PLK2 activity of the enantiomers” value (shortened to “relative PLK2 activity”) on PLK2 was “more active compound”.
Turning to `CC[C@@]12COCCN1c1nc(-c3ccncc3-c3ccccc3)ncc1N(C)C2=O` [Example 394, (S)-6a-ethyl-5-methyl-2-(3-phenylpyridin-4-yl)-6a,7,9,10-tetrahydro-[1,4]oxazino[3,4-h]pteridin-6(5H)-one], the “relative PLK2 activity” value at PLK2 is “more active compound”.
Regarding `CC[C@@]12COCCN1c1nc(-c3snnc3-c3ccc(F)cc3F)ncc1N(C)C2=O` [Example 397, (S)-2-(4-(2,4-difluorophenyl)-1,2,3-thiadiazol-5-yl)-6a-ethyl-5-methyl-6a,7,9,10-tetrahydro-[1,4]oxazino[3,4-h]pteridin-6(5H)-one], the “relative PLK2 activity” value at PLK2 is given as “more active compound”.
For `CC[C@@]12CN(C)CCN1c1nc(-n3ccnc3-c3ccccc3)ncc1N(C)C2=O` [Example 374, (S)-6a-ethyl-5,8-dimethyl-2-(2-phenyl-1H-imidazol-1-yl)-7,8,9,10-tetrahydro-5H-pyrazino[2,1-h]pteridin-6(6aH)-one], the “relative PLK2 activity” value at PLK2 is “more active compound”.
Take `CC[C@@H]1C(=O)N(C)c2cnc(-c3ccccc3-c3ccccc3)nc2N1C1CCCC1` [Example 70, (R)-2-(biphenyl-2-yl)-8-cyclopentyl-7-ethyl-5-methyl-7,8-dihydropteridin-6(5H)-one]: the IC50 against PLK1 and at PLK3 (setting [1]) was < 1 µM each time.
Take `CC[C@@H]1C(=O)N(C)c2cnc(-n3ccnc3-c3ccc(F)cc3)nc2N1c1ccn(C)n1` [Example 407, (R)-7-ethyl-2-(2-(4-fluorophenyl)-1H-imidazol-1-yl)-5-methyl-8-(1-methyl-1H-pyrazol-3-yl)-7,8-dihydropteridin-6(5H)-one]: the “relative PLK2 activity” value on PLK2 was “more active compound”.
For the molecule `CC(C)N1c2nc(-n3ccnc3-c3ccc(F)cc3)ncc2N(C)C(=O)C12CCC2` [Example 290, 2′-(2-(4-fluorophenyl)-1H-imidazol-1-yl)-8′-isopropyl-5′-methyl-5′H-Spiro[cyclobutane-1,7′-pteridin]-6′(8′H)-one], the IC50 on PLK3 (setting [2]) was in the range of 10 to 50 µM.
For `CC[C@@H]1C(=O)N(C)c2cnc(N3CCCC3)nc2N1C1CCCC1` [Example 1, (R)-8-cyclopentyl-7-ethyl-5-methyl-2-(pyrrolidin-1-yl)-7,8-dihydropteridin-6(5H)-one], the IC50 against PLK1 is 10 to 50 µM; on PLK2, 1 to 10 µM.
`CC[C@@H]1C(=O)N(C)c2cnc(-c3ccc[nH]3)nc2N1C1CCCC1` [Example 6, (R)-8-cyclopentyl-7-ethyl-5-methyl-2-(1H-pyrrol-2-yl)-7,8-dihydropteridin-6(5H)-one]: the IC50 against PLK1 and on PLK2 was < 1 µM in each case.
For the molecule `CC[C@@H]1C(=O)N(C)c2cnc(-n3cnc4ccccc43)nc2N1C1CCCC1` [Example 4, (R)-2-(1H-benzo[d]imidazol-1-yl)-8-cyclopentyl-7-ethyl-5-methyl-7,8-dihydropteridin-6(5H)-one], the IC50 on PLK1 and at PLK2 was < 1 µM in each case.
In the case of `CC[C@@]12COCCN1c1nc(-n3ccnc3-c3ccc(F)cn3)ncc1N(C)C2=O` [Example 380, (S)-6a-ethyl-2-(2-(5-fluoropyridin-2-yl)-1H-imidazol-1-yl)-5-methyl-6a,7,9,10-tetrahydro-[1,4]oxazino[3,4-h]pteridin-6(5H)-one], the “relative PLK2 activity” value at PLK2 was “more active compound”.
`CC[C@@]12COCCN1c1nc(-n3ccnc3-c3ccccc3)ncc1NC2=O` [Example 418, (S)-6a-ethyl-2-(2-phenyl-1H-imidazol-1-yl)-6a,7,9,10-tetrahydro-[1,4]oxazino[3,4-h]pteridin-6(5H)-one]: on PLK2, the “relative PLK2 activity” value is “more active compound”.
Turning to `CC[C@@]12COCCN1c1nc(-n3ccnc3-c3ccc(F)cc3F)ncc1N(C)C2=O` [Example 376, (S)-2-(2-(2,4-difluorophenyl)-1H-imidazol-1-yl)-6a-ethyl-5-methyl-6a,7,9,10-tetrahydro-[1,4]oxazino[3,4-h]pteridin-6(5H)-one], the “relative PLK2 activity” value at PLK2 was “more active compound”.
Consider `CC[C@@H]1C(=O)N(C)c2cnc(-n3ccnc3-c3ccccc3)nc2N1c1cnn(C)c1` [Example 409, (R)-7-ethyl-5-methyl-8-(1-methyl-1H-pyrazol-4-yl)-2-(2-phenyl-1H-imidazol-1-yl)-7,8-dihydropteridin-6(5H)-one], for which the “relative PLK2 activity” value at PLK2 was “more active compound”.
As for `CC[C@@]12COCCN1c1nc(-c3cn[nH]c3-c3ccc(F)cc3F)ncc1N(C)C2=O` [Example 411, (S)-2-(5-(2,4-difluorophenyl)-1H-pyrazol-4-yl)-6a-ethyl-5-methyl-6a,7,9,10-tetrahydro-[1,4]oxazino[3,4-h]pteridin-6(5H)-one], at PLK2, the “relative PLK2 activity” value was “more active compound”.
As to `CC[C@@H]1C(=O)N(C)c2cnc(N3CCCCC3)nc2N1C1CCCC1` [Example 2, (R)-8-cyclopentyl-7-ethyl-5-methyl-2-(piperidin-1-yl)-7,8-dihydropteridin-6(5H)-one], the IC50 against PLK1 and at PLK2 was 10 to 50 µM throughout.
Regarding `CCC1C(=O)N(C)c2cnc(-n3ccnc3-c3ccc(F)cc3)nc2N1c1cccc(C#N)c1` (centres unmarked) [Example 332], the concentration for half-maximal inhibition (IC50) on PLK2 was < 1 µM; at PLK3 (setting [1]), 1 to 10 µM.
On to `CCC1(C)C(=O)N(C)c2cnc(-n3ccnc3-c3ccc(F)cc3)nc2N1CCC(F)(F)F` (centres unmarked) [Example 279, 7-ethyl-2-(2-(4-fluorophenyl)-1H-imidazol-1-yl)-5,7-dimethyl-8-(3,3,3-trifluoropropyl)-7,8-dihydropteridin-6(5H)-one], for which the IC50 at PLK3 (setting [2]) was in the range of 10 to 50 µM.
`CC[C@@H]1C(=O)N(C)c2cnc(-n3cc(C(=O)NC)cn3)nc2N1C1CCCC1` [Example 40, (R)-1-(8-cyclopentyl-7-ethyl-5-methyl-6-oxo-5,6,7,8-tetrahydropteridin-2-yl)-N-methyl-1H-pyrazole-4-carboxamide]: the IC50 at PLK2 is 1 to 10 µM.
Consider `CCOC(=O)c1cnn(-c2ncc3c(n2)N(C2CCCC2)[C@H](CC)C(=O)N3)c1` [Example 30, (R)-ethyl 1-(8-cyclopentyl-7-ethyl-6-oxo-5,6,7,8-tetrahydropteridin-2-yl)-1H-pyrazole-4-carboxylate], for which the IC50 against PLK1 and at PLK2 was > 50 µM in each case.
In the case of `CC[C@@H]1C(=O)N(C)c2cnc(-c3cccc4cc[nH]c34)nc2N1C1CCCC1` [Example 10, (R)-8-cyclopentyl-7-ethyl-2-(1H-indol-7-yl)-5-methyl-7,8-dihydropteridin-6(5H)-one], the IC50 at PLK1 fell in the range of 10 to 50 µM; on PLK2, 1 to 10 µM.
On to `CC[C@@]12COCCN1c1nc(-c3cn[nH]c3-c3nccs3)ncc1N(C)C2=O` [Example 344, (S)-6a-ethyl-5-methyl-2-(5-(thiazol-2-yl)-1H-pyrazol-4-yl)-6a,7,9,10-tetrahydro-[1,4]oxazino[3,4-h]pteridin-6(5H)-one], for which, at PLK2, the “relative PLK2 activity” value is “more active compound”.
Regarding `CC[C@@H]1C(=O)N(C)c2cnc(-c3ccccn3)nc2N1C1CCCC1` [Example 8, (R)-8-cyclopentyl-7-ethyl-5-methyl-2-(pyridin-2-yl)-7,8-dihydropteridin-6(5H)-one], the IC50 against PLK1 and at PLK2 was 1 to 10 µM in each case.
For `CC[C@@H]1C(=O)N(C)c2cnc(-c3ccnc(OC)c3)nc2N1C1CCCC1` [Example 15, (R)-8-cyclopentyl-7-ethyl-2-(2-methoxypyridin-4-yl)-5-methyl-7,8-dihydropteridin-6(5H)-one], the IC50 on PLK1 and at PLK2 was < 1 µM throughout.
For the molecule `CC[C@@H]1C(=O)N(C)c2cnc(-c3cccc4cccnc34)nc2N1C1CCCC1` [Example 11, (R)-8-cyclopentyl-7-ethyl-5-methyl-2-(quinolin-8-yl)-7,8-dihydropteridin-6(5H)-one], the IC50 against PLK1 is > 50 µM; at PLK2, 10 to 50 µM.
Turning to `CC[C@@]12COCCN1c1nc(-c3snnc3-c3ccccc3)ncc1N(C)C2=O` [Example 368, (S)-6a-ethyl-5-methyl-2-(4-phenyl-1,2,3-thiadiazol-5-yl)-6a,7,9,10-tetrahydro-[1,4]oxazino[3,4-h]pteridin-6(5H)-one], on PLK2, the “relative PLK2 activity” value is reported as “more active compound”.
`CC[C@@H]1C(=O)N(C)c2cnc(-c3ccccc3)nc2N1C1CCCC1` [Example 12, (R)-8-cyclopentyl-7-ethyl-5-methyl-2-phenyl-7,8-dihydropteridin-6(5H)-one]: the 50% inhibitory concentration (IC50) on PLK1 and at PLK2 was 1 to 10 µM in each case.
